Measurements from PubChem BioAssay (NCI).
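Results reflect a 48-hour exposure of cells in 96-well plates to compound at five concentrations. The concentration for 50% growth inhibition is given as GI50. The concentration for full growth arrest is given as TGI.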

What was measured:
Assay in all cases: NCI tumour cell line growth inhibition, 48 h
[1] = test system: EKVX NSCLC
[2] = test system: SNB-75 CNS
[3] = test system: BT-549 breast
[4] = test system: PC-3 prostate
[5] = test system: SNB-19 CNS
[6] = test system: HT29 colon
[7] = test system: MDA-MB-231 breast
[8] = test system: HOP-92 NSCLC
[9] = test system: NCI-H23 lung
[10] = test system: SF-539 CNS
[11] = test system: SN12C renal
[12] = test system: HS 578T breast
[13] = test system: SK-MEL-28 melanoma
[14] = test system: LOX IMVI melanoma
[15] = test system: ACHN renal
[16] = test system: CAKI-1 renal
[17] = test system: U251 CNS
[18] = test system: CCRF-CEM leukemia
[19] = test system: HCT-15 colon
[20] = test system: IGROV1 ovarian
[21] = test system: OVCAR-8 ovarian
[22] = test system: RPMI-8226 leukemia
[23] = test system: SK-MEL-5 melanoma
[24] = test system: HCT-116 colon
[25] = test system: UACC-62 melanoma
[26] = test system: T-47D breast
[27] = test system: HL-60(TB) leukemia
[28] = test system: SF-295 CNS
[29] = test system: MCF7 breast
[30] = test system: NCI-H460 lung
[31] = test system: NCI-H226 lung
[32] = test system: NCI/ADR-RES ovarian
[33] = test system: DU-145 prostate
[34] = test system: COLO 205 colon
[35] = test system: OVCAR-4 ovarian
[36] = test system: UACC-257 melanoma
[37] = test system: MDA-MB-468 breast
[38] = test system: K-562 leukemia
[39] = test system: SK-OV-3 ovarian
[40] = test system: HCC-2998 colon
[41] = test system: NCI-H522 lung
[42] = test system: HOP-62 NSCLC
[43] = test system: MOLT-4 leukemia
[44] = test system: RXF 393 renal
[45] = test system: SW-620 colon
[46] = test system: OVCAR-3 ovarian
[47] = test system: UO-31 renal
[48] = test system: SF-268 CNS
[49] = test system: MALME-3M melanoma
[50] = test system: 786-0 renal
[51] = test system: MDA-MB-435
[52] = test system: A498 renal
[53] = test system: A549 NSCLC
[54] = test system: OVCAR-5 ovarian
[55] = test system: KM12 colon
[56] = test system: SK-MEL-2 melanoma
[57] = test system: SR leukemia
[58] = test system: M14 melanoma
[59] = test system: TK-10 renal

`CCC(C)S(=O)(=O)c1oc(-c2ccc(C)cc2)nc1S(=O)(=O)c1ccccc1` (stereo not drawn) gave a GI50 [1] of 1.98 µM, a TGI [1] of 4.21 µM and a GI50 [2] of 3.86 µM. It also gave a TGI [2] of 17 µM, a GI50 [3] of 1.81 µM and a TGI [3] of 3.42 µM. It also gave a GI50 [4] of 3.14 µM, a TGI [4] of 11.2 µM and a GI50 [5] of 12.9 µM. For the same compound, the TGI [5] was 25.5 µM, the GI50 [6] was 2.04 µM and the TGI [6] was 4.86 µM. For the same compound, the GI50 [7] was 1.66 µM, the TGI [7] was 3.15 µM and the GI50 [8] was 2.27 µM. It also gave a TGI [8] of 6.37 µM, a GI50 [9] of 1.76 µM and a TGI [9] of 3.55 µM. For the same compound, the GI50 [10] was 1.67 µM, the TGI [10] was 3.03 µM and the GI50 [11] was 1.72 µM. The TGI [11] was 3.34 µM, the GI50 [12] was 2.18 µM and the TGI [12] was 7.36 µM. For the same compound, the GI50 [13] was 1.71 µM, the TGI [13] was 3.14 µM and the GI50 [14] was 1.23 µM. For the same compound, the TGI [14] was 2.58 µM, the GI50 [15] was 1.65 µM and the TGI [15] was 3.01 µM. The GI50 [16] was 1.53 µM, the TGI [16] was 3.15 µM and the GI50 [17] was 15.5 µM. It also gave a TGI [17] of 31.2 µM, a GI50 [18] of 0.287 µM and a TGI [18] of 1.33 µM. The GI50 [19] was 1.45 µM, the TGI [19] was 3.18 µM and the GI50 [20] was 1.96 µM. For the same compound, the TGI [20] was 3.75 µM, the GI50 [21] was 3.09 µM and the TGI [21] was 10.7 µM. For the same compound, the GI50 [22] was 2.16 µM, the TGI [22] was 8.17 µM and the GI50 [23] was 2.99 µM. It also gave a TGI [23] of 11.6 µM, a GI50 [24] of 1.52 µM and a TGI [24] of 3.62 µM. It also gave a GI50 [25] of 1.76 µM, a TGI [25] of 3.75 µM and a GI50 [26] of 1.87 µM. For the same compound, the TGI [26] was 4.41 µM, the GI50 [27] was 1.6 µM and the TGI [27] was 4.91 µM. It also gave a GI50 [28] of 11.3 µM, a TGI [28] of 23.4 µM and a GI50 [29] of 1.2 µM. The TGI [29] was 2.86 µM, the GI50 [30] was 3.13 µM and the TGI [30] was 12.1 µM. For the same compound, the GI50 [31] was 12.5 µM, the TGI [31] was 30.5 µM and the GI50 [32] was 2.35 µM. It also gave a TGI [32] of 5.7 µM, a GI50 [33] of 1.98 µM and a TGI [33] of 4.57 µM. The GI50 [34] was 2.67 µM, the TGI [34] was 6.02 µM and the GI50 [35] was 2.67 µM. For the same compound, the TGI [35] was 7.84 µM, the GI50 [36] was 1.89 µM and the TGI [36] was 4.24 µM. For the same compound, the GI50 [37] was 1.43 µM, the TGI [37] was 2.99 µM and the GI50 [38] was 1.38 µM. For the same compound, the TGI [38] was greater than 100 µM, the GI50 [39] was 17.2 µM and the TGI [39] was 33.3 µM. It also gave a GI50 [40] of 1.74 µM, a TGI [40] of 3.3 µM and a GI50 [41] of 1.31 µM. The TGI [41] was 2.77 µM, the GI50 [42] was 15.8 µM and the TGI [42] was 33.2 µM. The GI50 [43] was 1.45 µM, the TGI [43] was greater than 100 µM and the GI50 [44] was 1.48 µM. It also gave a TGI [44] of 3.1 µM, a GI50 [45] of 1.13 µM and a TGI [45] of 2.47 µM. For the same compound, the GI50 [46] was 1.63 µM, the TGI [46] was 3.23 µM and the GI50 [47] was 1.52 µM. The TGI [47] was 2.85 µM, the GI50 [48] was 2.65 µM and the TGI [48] was 8.81 µM. The GI50 [49] was 1.65 µM, the TGI [49] was 3.03 µM and the GI50 [50] was 1.67 µM. The TGI [50] was 3.37 µM, the GI50 [51] was 1.74 µM and the TGI [51] was 3.85 µM. The GI50 [52] was 16.9 µM, the TGI [52] was 30.7 µM and the GI50 [53] was 13.5 µM. The TGI [53] was 32.3 µM, the GI50 [54] was 2.83 µM and the TGI [54] was 9.59 µM. The GI50 [55] was 8.37 µM, the TGI [55] was 23.4 µM and the GI50 [56] was 4.1 µM. For the same compound, the TGI [56] was 16.2 µM, the GI50 [57] was 2.73 µM and the TGI [57] was greater than 100 µM. The GI50 [58] was 1.73 µM, the TGI [58] was 3.83 µM and the GI50 [59] was 1.73 µM. It also gave a TGI [59] of 3.44 µM.
